# Molecular target: Akita16 HA (crystal construct) (Influenza A virus (A/black swan/Akita/1/2016(H5N6)), UniProt A0A1L7N0F8)
smiles,measurement,value
"CC(=O)N[C@H]1[C@H](O[C@H]2[C@@H](O)[C@@H](CO)O[C@@H](O[C@H]3[C@H](O)[C@@H](O)C(O)O[C@@H]3CO)[C@@H]2O)O[C@H](CO)[C@@H](O)[C@@H]1O[C@@H]1O[C@H](CO)[C@H](O)[C@H](O[C@]2(C(=O)O)C[C@H](O)[C@@H](NC(C)=O)[C@H]([C@H](O)[C@H](O)CO)O2)[C@H]1O (stereo partly shown) [LSTa, NeuAcα2-3Galβ1-3GlcNAcβ1-3Galβ1-4Glc]","X-ray crystal structure of complex, 2.71 Å","Akita16-WT HA structure with avian-type receptor analog, LSTa"
